The text below walks through data of patent US4859468A, “Compositions and method for decomposing adipose tissue” (Senju Pharmaceutical Co., Ltd., priority 1985, dated 1989).

In this test the test system is free fat cell. The test can be described thus: Activity on the adrenaline's decomposing action on free fat cell (free fatty acid liberation with adrenaline). In kind it is cell-based, male Wister rat. The conditions noted are these: adrenaline 0.5 μg/ml alone.

Procedure: Eight grams of fat tissue at epididymis of male Wister rat (body weight 150-200 g) was sliced and was added into 20 ml of a Krebs-Ringer phosphoric acid buffer solution (pH 7.4) (hereinafter referred to as KRP buffer solution) containing 20 mg of glucose, 4% of bovine serum albumin and 20 mg of collagenase. The mixture was incubated at 37° C. for 50 min, and after filtration with nylon mesh, was centrifuged at 500 rpm for 30 sec; then, any portion that was not the fat cell layer was sucked out. The fat cell layer was washed twice with the KRP buffer solution and then diluted to 20 ml by addition of the KRP buffer solution. To 0.25 ml of this suspension, 0.5 ml of KRP buffer solution containing 5% of bovine serum albumin and 0.1 ml of the liquids to be tested or KRP buffer solution as control were added; these mixtures were incubated at 37° C. for 2 hr and the freed fatty acids were assayed by Dole's method (V. P. Dole, J. Clin. Invest., 35, 150 (1956)).

For `CNCC(O)c1ccc(O)c(O)c1` (stereo not shown) [adrenaline], the “action of adrenaline on free fat cell (in words)” value was “free fatty acid is freed”.
